This is an account of results in patent EP3492066A1, “COSMETIC PREPARATIONS HAVING A CALMING EFFECT” (Beiersdorf AG, priority 2010, dated 2012).

The subject of experiment [1] is Probandinnen. Put plainly: Olfactometer test with psychophysiological measurement (blood volume pulse amplitude, heart rate) versus placebo. Format: in vivo, Menschen. The following applies: for Blutvolumenpuls Amplitude: gegenüber der Placebokontrolle (Propylenglykol), 5 min fragrance by olfactometer; for Blutvolumenpuls Amplitude (Abbildung 1): 0,025% Tetrahydro-6-pentyl-2H-pyran-2-one (N=9), 0,075% 2,6-Dimethyl-7-octen-2-ol (N=10), gegenüber Placebokontrolle Propylenglycol (N=10); for Änderung der Herzrate: normalised. The source says: Es wurde in weiteren Tests die beruhigende Wirkung der Duftstoffe 6-Methyl-5-Hepten-2-one, Octan-2-one, Heptan-2-one, Nonan-2-one, 5-hexyldihydro-5-methyl-2(3H)-furanone, Tetrahydro-6-pentyl-2H-pyran-2-one, Octanal und 2,6-Dimethyl-7-octen-2-ol auf den Menschen untersucht. Dazu wurde ein Testdesign gewählt, bei dem mit Hilfe eines Olfaktometers (Burghart) kosmetisch einsetzbare und kommerziell erhältliche Duftstoffe an die Nase des Probanden gebracht wurden. Die Duftstoffe wurden in Propylenglykol (Caelo) gelöst. Als Placebokontrolle wurde entsprechend ebenfalls Propylenglykol eingesetzt
Die Probandinnen wurden in einer bequemen, leicht nach hinten gelehnten Haltung auf einem Sessel platziert. Das Ende des Olfaktometerschlauches wurde im Abstand von etwa 10 cm vor der Nase des Probanden platziert und mit Hilfe eines Stativs fixiert. Der Versuchsaufbau (Nexus, Olfaktometer) wurde von den Probandinnen mit Hilfe einer spanischen Wand abgeschirmt, um die Teilnehmerinnen nicht durch das Messgeschehen abzulenken. Die Messungen fanden in einem hellen, gut gelüfteten, auf 21°C temperierten Raum statt.
An den Untersuchungen nahmen Probandinnen im Alter von 20 bis 40 Jahren teil. Das Durchschnittsalter betrug 31 Jahre. Die Probandinnen besaßen einen BMI zwischen 19 und 25. Die Probandinnen wurden gebeten, einen Tag vor Studienbeginn auf Parfum und Body Lotion zu verzichten. Am Messtag selbst durften die Teilnehmerinnen weder Parfum, noch parfümierte Deoprodukte, Body Lotions, Gesichtscreme, Handcreme und Haarspray benutzen. Sie mussten auf Kaffee, Schwarztee, Fruchtsäfte und Zigaretten verzichten und durften 30 min vor Testbeginn nichts mehr essen und ausschließlich Wasser trinken.
Die Einstellungen am Olfaktometer sahen einen Luftstrom von 4 L/min vor. Die externe Druckluft betrug 2 bar. Die Probandinnen wurden mit den entsprechenden Messelektroden bestückt und akklimatisierten zunächst für 1 min. Diese Zeit wurde gleichzeitig genutzt, um sicherzustellen, dass sich die Elektroden zur Bestimmung psychophysiologischer Parameter in einem schwankungsfreien und messbereiten Zustand befinden. Alle Probandinnen erhielten im Anschluss für 5 min Kontrollluft ohne Duft. Während dieser Zeit sollten alle Probandinnen einen emotional neutralen Zustand erreichen. Anschließend erhielten die Probandinnen für 5 min einen Duftstoff, der so niedrig konzentriert war, dass er nicht unangenehm oder gar stechend empfunden wurde. Alle Duftstoffe wurden in Propylenglykol gelöst. Als Placebokontrolle diente ebenfalls Propylenglykol. Während der gesamten 10 min wurden die psychophysiologischen Messparameter dermale Aktivität, Herzrate und Blutvolumenpuls mit Hilfe des Messgeräts NeXus und der Software Biotrace (Mind Media B.V.) erfasst. Die Differenz zwischen maximalem und minimalem Blutvolumen innerhalb eines Herzzyklus nennt man Blutvolumenpuls Amplitude. Dieser Wert sinkt bei psychischer Belastung ab. Umgekehrt kann ein Anstieg als Entspannungsreaktion interpretiert werden.
Um eine gute Vergleichbarkeit der Messdaten der verschiedenen Testgruppen gewährleisten zu können, wurden die Rohdaten der Messung normiert. Dafür wurde der Mittelwert der BVP Amplitude 1 min vor Duftapplikation von allen anderen Messwerten abgezogen. Die Summe der Differenzen ergibt die Änderung der BVP Amplitude in µV.

Experiment [2] relates to Probandinnen. Put plainly: Short stress test (unpleasant pictures, loud drum rhythm) with Self-Assessment Manikin (SAM) rating of nervousness. Format: in vivo, Menschen. The following applies: im Mittel, compared with Placebo-behandelte Probandinnen. As to the method: Zur Ergänzung der zuvor ermittelten Daten wurde mit den Probandinnen ein kurzer Stresstest durchgeführt, bei dem sie nach einer Anfangsentspannung für 1 min einer schnellen Folge von unangenehmen Bildern (Spinnen, Feuer, etc.) auf einem Fernsehbildschirm ausgesetzt wurden. Die visuellen Reize wurden von einem lauten Trommelrhythmus begleitet. Vor und nach dem Stresstest wurden die Probandinnen gebeten, mit Hilfe eines Self-Assessment Manikins (SAM), [formula] ihre eigene Nervosität zu bewerten.
Beispielhaft sind in Abbildung 2 die Werte des SAM-Fragebogens für Nervosität für 2,6-Dimethyl-7-octen-2-ol und Tetrahydro-6-pentyl-2H-pyran-2-one dargestellt. Abbildung 2 zeigt die Angaben der Probandinnen zu ihrer Nervosität vor und nach dem Stresstest als Differenz (nachher minus vorher).

Take `CC(=O)CCC=C(C)C` [6-Methyl-5-Hepten-2-one]: the “Blutvolumenpuls Amplitude” value in the experiment on Probandinnen [1] is listed as “Beruhigungs- bzw. Entspannungsreaktion”. Also, the “Stress-vermittelte Änderung der Nervosität (SAM)” value in the experiment with Probandinnen [2] is recorded as “geringeren Stress-vermittelten Änderung der Nervosität”.
`CCCCCCC1(C)CCC(=O)O1` (stereo not shown) [5-hexyldihydro-5-methyl-2(3H)-furanone]: the “Blutvolumenpuls Amplitude” value in the experiment with Probandinnen [1] is listed as “Beruhigungs- bzw. Entspannungsreaktion”. Also, the “Stress-vermittelte Änderung der Nervosität (SAM)” value in the experiment with Probandinnen [2] is “geringeren Stress-vermittelten Änderung der Nervosität”.
As for `CCCCCCC(C)=O` [Octan-2-one], in the experiment with Probandinnen [1], the “Blutvolumenpuls Amplitude” value is “Beruhigungs- bzw. Entspannungsreaktion”. The “Stress-vermittelte Änderung der Nervosität (SAM)” value in the experiment on Probandinnen [2] is “geringeren Stress-vermittelten Änderung der Nervosität”.
For `CCCCCCCC=O` [Octanal], in the experiment with Probandinnen [1], the “Blutvolumenpuls Amplitude” value is on record as “Beruhigungs- bzw. Entspannungsreaktion”. Moreover, in the experiment with Probandinnen [2], the “Stress-vermittelte Änderung der Nervosität (SAM)” value is given as “geringeren Stress-vermittelten Änderung der Nervosität”.
As to `C=CC(C)CCCC(C)(C)O` (stereo not shown) [2,6-Dimethyl-7-octen-2-ol], in the experiment on Probandinnen [1], the “Blutvolumenpuls Amplitude (Abbildung 1)” value was “Anstieg” and the “Blutvolumenpuls Amplitude” value was “Anstieg”. Moreover, the “Stress-vermittelte Änderung der Nervosität (SAM)” value in the experiment with Probandinnen [2] is “geringeren Stress-vermittelten Änderung der Nervosität”.
On to `CCCCCCCC(C)=O` [Nonan-2-one], for which, in the experiment on Probandinnen [1], the “Blutvolumenpuls Amplitude” value is reported as “Beruhigungs- bzw. Entspannungsreaktion”. The “Stress-vermittelte Änderung der Nervosität (SAM)” value with Probandinnen [2] is listed as “geringeren Stress-vermittelten Änderung der Nervosität”.
On to `CCCCCC(C)=O` [Heptan-2-one], for which, in the experiment on Probandinnen [1], the “Blutvolumenpuls Amplitude” value is reported as “Beruhigungs- bzw. Entspannungsreaktion”. Further, the “Stress-vermittelte Änderung der Nervosität (SAM)” value in the experiment on Probandinnen [2] was “geringeren Stress-vermittelten Änderung der Nervosität”.
Consider `CCCCCC1CCCC(=O)O1` (stereo not shown) [Tetrahydro-6-pentyl-2H-pyran-2-one], for which the “Blutvolumenpuls Amplitude (Abbildung 1)” value in the experiment on Probandinnen [1] was “Anstieg”. Moreover, the “Änderung der Herzrate” value is -2,51 bpm in the experiment on Probandinnen [1] (Duftphase, Zeit 300 s, 0,025% in Propylenglykol); -3,27 bpm in the experiment with Probandinnen [1] (Duftphase, Zeit 315 s, 0,025% in Propylenglykol); -2,71 bpm in the experiment on Probandinnen [1] (Duftphase, Zeit 330 s, 0,025% in Propylenglykol); -1,94 bpm with Probandinnen [1] (Duftphase, Zeit 435 s, 0,025% in Propylenglykol); -2,91 bpm in the experiment with Probandinnen [1] (Duftphase, Zeit 540 s, 0,025% in Propylenglykol); -2,44 bpm in the experiment on Probandinnen [1] (Duftphase, Zeit 585 s, 0,025% in Propylenglykol). In addition, the “Änderung der Herzrate” value with Probandinnen [1] (Kontrollluft (before fragrance application), Zeit 30 s, 0,025% group) is reported as -1,26 bpm; in the experiment with Probandinnen [1] (Kontrollluft (before fragrance application), Zeit 90 s, 0,025% group), -1,26 bpm; in the experiment with Probandinnen [1] (Kontrollluft (before fragrance application), Zeit 135 s, 0,025% group) it was -1,65 bpm; in the experiment with Probandinnen [1] (Kontrollluft (before fragrance application), Zeit 180 s, 0,025% group), -2,16 bpm; in the experiment on Probandinnen [1] (Kontrollluft (before fragrance application), Zeit 225 s, 0,025% group) it was -0,63 bpm; in the experiment on Probandinnen [1] (Kontrollluft (before fragrance application), Zeit 285 s, 0,025% group), -0,02 bpm. For the same compound, the “Blutvolumenpuls Amplitude” value in the experiment on Probandinnen [1] is “Anstieg”. In the experiment on Probandinnen [1] (result in words, im Vergleich zur Placebokontrolle, after fragrance application), the Herzrate entry is given as “Senkung der Herzrate”. Moreover, in the experiment on Probandinnen [2], the “Stress-vermittelte Änderung der Nervosität (SAM)” value is “geringeren Stress-vermittelten Änderung der Nervosität”.
